Measured values: US20070260068A1, “Method for the Preparation of Crystal Forms of Torsemide in a Pure State” (priority 2004, published 2007)

Columns and labels:
[1] = solubility of amorphous torsemide compared with crystalline forms; assay type: physicochemical; details: isolated amorphous torsemide vs crystalline forms incl. those of U.S. 5,914,336, Re. 34,672 and WO 00/20395
[2] = stability of the crystal form in an ethanol slurry; assay type: physicochemical
Experimental: (§1) In another embodiment of the present invention, torsemide modification I may be made from torsemide modification II by reslurry in ethanol. By the process of the present invention, torsemide modification II is stirred at room temperature in ethanol for a time sufficient to induce the transformation of torsemide modification II to torsemide modification I. Preferably the mixture is stirred for 2 hours. Torsemide modification I is isolated upon filtering the mixture followed by drying under high vacuum at a temperature of about 40° C. to about 60° C. for a sufficient time to complete drying. Drying is complete upon reaching constant weight. It has been observed that torsemide modification I is stable in an ethanol slurry for at least 65 hours.
as §1, with “dimethyl formamide (DMF).” for “ethanol.”, “methods” for “process”, “DMF” for “ethanol”, “I.” for “I. Preferably the mixture is stirred for 2 hours.”, “It has been observed that torsemide modification I is stable in an ethanol slurry for at least 65 hours.” left out

SMILES	solubility relative to crystalline forms of torsemide [1]	time stable in an ethanol slurry [2]
Cc1cccc(Nc2ccncc2S(=O)(=O)NC(=O)NC(C)C)c1 [amorphous torsemide, 1-Isopropyl-3-[(4-m-toluidino-3-pyridyl)sulfonyl] urea]	more soluble than crystalline forms of torsemide	
Cc1cccc(Nc2ccncc2S(=O)(=O)NC(=O)NC(C)C)c1 [torsemide modification I, 1-Isopropyl-3-[(4-m-toluidino-3-pyridyl)sulfonyl] urea]		at least 65 hours
